Measurements published in ChEMBL document CHEMBL1671859, “bla(IMP-4) in different genetic contexts in Enterobacteriaceae isolates from Australia” (2008).
Converted amounts (≈) assume the structure as drawn.

Tests used:
Format in all cases: functional
[1] = tested on: Klebsiella pneumoniae; test: Antibacterial activity against Klebsiella pneumoniae isolate Kp3799 harboring IncL/M plasmid and blaIMP-4-qacG2-aacA4-catB3 array by Etest method in presence of clavulanic acid
[2] = tested on: Enterobacter cloacae; test: Antibacterial activity against Enterobacter cloacae isolate El3518 harboring IncL/M plasmid and blaIMP-4-qacG2-aacA4-catB3 array by Etest method in presence of clavulanic acid
[3] = tested on: Escherichia coli; test: Antibacterial activity against Escherichia coli isolate Ec9381 harboring IncL/M plasmid and blaIMP-4-qacG2-aacA4-catB3 array by Etest method in presence of clavulanic acid
[4] = tested on: Citrobacter amalonaticus; test: Antibacterial activity against Citrobacter amalonaticus isolate Ca1614 harboring IncL/M plasmid and blaIMP-4-qacG2-aacA4-catB3 array by Etest method in presence of clavulanic acid
[5] = tested on: Klebsiella oxytoca; test: Antibacterial activity against Klebsiella oxytoca isolate Ko0426 harboring IncL/M plasmid and blaIMP-4-qacG2-aacA4-catB3 array by Etest method in presence of clavulanic acid
[6] = tested on: Klebsiella oxytoca; test: Antibacterial activity against Klebsiella oxytoca Ko1156 transconjugant harboring IncL/M plasmid and blaIMP-4-qacG2-aacA4-catB3 array by Etest method in presence of clavulanic acid
[7] = tested on: Escherichia coli; test: Antibacterial activity against Escherichia coli Ec9381 transconjugant harboring IncL/M plasmid and blaIMP-4-qacG2-aacA4-catB3 array by Etest method in presence of clavulanic acid
[8] = tested on: Serratia marcescens; test: Antibacterial activity against Serratia marcescens isolate Sm201 harboring IncA/C plasmid and blaIMP-4-qacG2-aacA4-catB3 array by Etest method in presence of clavulanic acid
[9] = tested on: Klebsiella pneumoniae; test: Antibacterial activity against Klebsiella pneumoniae isolate Kp1945 harboring IncL/M plasmid, blaIMP-4-qacG2-aacA4-catB3 and dfrA12-orfF-aadA2 arrays by Etest method in presence of clavulanic acid
[10] = tested on: Klebsiella pneumoniae; test: Antibacterial activity against Klebsiella pneumoniae Kp7564 transconjugant harboring IncL/M plasmid and blaIMP-4-qacG2-aacA4-catB3 array by Etest method in presence of clavulanic acid
[11] = tested on: Citrobacter koseri; test: Antibacterial activity against Citrobacter koseri isolate Ck211 harboring IncA/C plasmid and blaIMP-4-qacG2-aacA4-catB3 array by Etest method in presence of clavulanic acid
[12] = tested on: Citrobacter amalonaticus; test: Antibacterial activity against Citrobacter amalonaticus isolate Ca38009 harboring IncL/M plasmid and blaIMP-4-qacG2-aacA4-catB3 array by Etest method in presence of clavulanic acid
[13] = tested on: Morganella morganii; test: Antibacterial activity against Morganella morganii isolate Mm1229 harboring IncL/M plasmid and blaIMP-4-qacG2-aacA4-catB3 array by Etest method in presence of clavulanic acid
[14] = tested on: Klebsiella pneumoniae; test: Antibacterial activity against Klebsiella pneumoniae Kp2730 transconjugant harboring IncL/M plasmid and blaIMP-4-qacG2-aacA4-catB3 and dfrA12-orfF-aadA2 arrays by Etest method in presence of clavulanic acid
[15] = tested on: Enterobacter cloacae; test: Antibacterial activity against Enterobacter cloacae isolate El3799 harboring IncL/M plasmid and blaIMP-4-qacG2-aacA4-catB3 array by Etest method in presence of clavulanic acid
[16] = tested on: Escherichia coli; test: Antibacterial activity against Escherichia coli Ec158 transconjugant harboring IncA/C plasmid and blaIMP-4-qacG2-aacA4-catB3 array by Etest method
[17] = tested on: Escherichia coli; test: Antibacterial activity against Escherichia coli isolate Ec158 harboring IncA/C plasmid and blaIMP-4-qacG2-aacA4-catB3 array by Etest method
[18] = tested on: Morganella morganii; test: Antibacterial activity against Morganella morganii isolate Mm1229 harboring IncL/M plasmid and blaIMP-4-qacG2-aacA4-catB3 array by Etest method
[19] = tested on: Klebsiella pneumoniae; test: Antibacterial activity against Klebsiella pneumoniae Kp204 transconjugant harboring IncA/C plasmid and blaIMP-4-qacG2-aacA4-catB3 array by Etest method
[20] = tested on: Escherichia coli; test: Antibacterial activity against Escherichia coli Ec221 transconjugant harboring IncA/C plasmid and blaIMP-4-qacG2-aacA4-catB3 array by Etest method
[21] = tested on: Klebsiella pneumoniae; test: Antibacterial activity against Klebsiella pneumoniae Kp1239 transconjugant harboring IncL/M plasmid and blaIMP-4-qacG2-aacA4-catB3 array by Etest method
[22] = tested on: Klebsiella oxytoca; test: Antibacterial activity against Klebsiella oxytoca Ko0426 transconjugant harboring IncL/M plasmid and blaIMP-4-qacG2-aacA4-catB3 array by Etest method
[23] = tested on: Escherichia coli; test: Antibacterial activity against Escherichia coli isolate Ec211 harboring IncA/C plasmid and blaIMP-4-qacG2-aacA4-catB3 array by Etest method
[24] = tested on: Klebsiella pneumoniae; test: Antibacterial activity against Klebsiella pneumoniae isolate Kp3799 harboring IncL/M plasmid and blaIMP-4-qacG2-aacA4-catB3 array by Etest method
[25] = tested on: Enterobacter cloacae; test: Antibacterial activity against Enterobacter cloacae isolate El1573 harboring IncL/M plasmid and blaIMP-4-qacG2-aacA4-catB3 array by Etest method
[26] = tested on: Enterobacter cloacae; test: Antibacterial activity against Enterobacter cloacae isolate El216 harboring IncA/C plasmid and blaIMP-4-qacG2-aacA4-catB3 array by Etest method
[27] = tested on: Citrobacter amalonaticus; test: Antibacterial activity against Citrobacter amalonaticus isolate Ca1614 harboring IncL/M plasmid and blaIMP-4-qacG2-aacA4-catB3 array by Etest method
[28] = tested on: Serratia marcescens; test: Antibacterial activity against Serratia marcescens isolate Sm220 harboring IncA/C plasmid and blaIMP-4-qacG2-aacA4-catB3 array by Etest method
[29] = tested on: Acinetobacter baumannii; test: Antibacterial activity against Acinetobacter baumannii isolate AbN450 harboring […]-qacG2-aacA4-catB3 array by Etest method
[30] = tested on: Escherichia coli; test: Antibacterial activity against Escherichia coli isolate Ec9381 harboring IncL/M plasmid and blaIMP-4-qacG2-aacA4-catB3 array by Etest method
[31] = tested on: Citrobacter koseri; test: Antibacterial activity against Citrobacter koseri isolate Ck211 harboring IncA/C plasmid and blaIMP-4-qacG2-aacA4-catB3 array by Etest method
[32] = tested on: Citrobacter amalonaticus; test: Antibacterial activity against Citrobacter amalonaticus isolate Ca38009 harboring IncL/M plasmid and blaIMP-4-qacG2-aacA4-catB3 array by Etest method
[33] = tested on: Morganella morganii; test: Antibacterial activity against Morganella morganii Mm1229 transconjugant harboring IncL/M plasmid and blaIMP-4-qacG2-aacA4-catB3 array by Etest method
[34] = tested on: Serratia marcescens; test: Antibacterial activity against Serratia marcescens isolate Sm265 harboring IncA/C plasmid and blaIMP-4-qacG2-aacA4-catB3 array by Etest method
[35] = tested on: Klebsiella pneumoniae; test: Antibacterial activity against Klebsiella pneumoniae isolate Kp2730 harboring IncL/M plasmid and blaIMP-4-qacG2-aacA4-catB3 and dfrA12-orfF-aadA2 arrays by Etest method
[36] = tested on: Enterobacter cloacae; test: Antibacterial activity against Enterobacter cloacae El3518 transconjugant harboring IncL/M plasmid and blaIMP-4-qacG2-aacA4-catB3 array by Etest method
[37] = tested on: Klebsiella pneumoniae; test: Antibacterial activity against Klebsiella pneumoniae isolate Kp38045 harboring IncL/M plasmid and blaIMP-4-qacG2-aacA4-catB3 array by Etest method
[38] = tested on: Citrobacter youngae; test: Antibacterial activity against Citrobacter youngae CyB38 transconjugant harboring blaIMP-4-qacG2-aacA4-catB3 array by Etest method
[39] = tested on: Klebsiella pneumoniae; test: Antibacterial activity against Klebsiella pneumoniae Kp38045 transconjugant harboring IncL/M plasmid and blaIMP-4-qacG2-aacA4-catB3 array by Etest method

Molecule | MIC [16] [µg/mL] | MIC [17] [µg/mL] | MIC [18] [µg/mL] | MIC [19] [µg/mL] | MIC [20] [µg/mL] | MIC [21] [µg/mL] | MIC [22] [µg/mL] | MIC [23] [µg/mL] | MIC [24] [µg/mL] | MIC [25] [µg/mL] | MIC [26] [µg/mL] | MIC [27] [µg/mL] | MIC [28] [µg/mL] | MIC [29] [µg/mL] | MIC [30] [µg/mL] | MIC [31] [µg/mL] | MIC [32] [µg/mL] | MIC [33] [µg/mL] | MIC [34] [µg/mL] | MIC [35] [µg/mL] | other results
CC1(C)S[C@@H]2[C@H](NC(=O)[C@H](N)c3ccc(O)cc3)C(=O)N2[C@H]1C(=O)O [AMOXICILLIN] |  |  |  |  |  |  |  |  |  |  |  |  |  |  |  |  |  |  |  |  | MIC [1]: > 16 µg/mL; MIC [2]: > 16 µg/mL; MIC [3]: > 16 µg/mL; MIC [4]: > 16 µg/mL; MIC [5]: > 16 µg/mL; MIC [6]: > 16 µg/mL; MIC [7]: > 16 µg/mL; MIC [8]: > 16 µg/mL; MIC [9]: > 16 µg/mL; MIC [10]: > 16 µg/mL; MIC [11]: > 16 µg/mL; MIC [12]: > 16 µg/mL; MIC [13]: > 16 µg/mL; MIC [14]: > 16 µg/mL; MIC [15]: > 16 µg/mL
CO/N=C(\C(=O)N[C@@H]1C(=O)N2C(C(=O)O)=C(COC(C)=O)CS[C@H]12)c1csc(N)n1 [CEFOTAXIME] | > 32 | > 32 | > 32 | > 32 | 32 (≈ 70.3 µM) | 32 (≈ 70.3 µM) | 32 (≈ 70.3 µM) | > 32 | > 32 | > 32 | > 32 | > 32 | > 32 | > 32 | > 32 | > 32 | > 32 | 32 (≈ 70.3 µM) | > 32 | > 32 | MIC [36]: 32 µg/mL (≈ 70.3 µM); MIC [37]: 32 µg/mL (≈ 70.3 µM); MIC [38]: > 32 µg/mL; MIC [39]: 32 µg/mL (≈ 70.3 µM)
C[C@@H](O)[C@H]1C(=O)N2C(C(=O)O)=C(SCCNC=N)C[C@H]12 [IMIPENEM ANHYDROUS] | 2 (≈ 6.68 µM) | ≤ 1 | 4 (≈ 13.4 µM) | 4 (≈ 13.4 µM) | 4 (≈ 13.4 µM) | 2 (≈ 6.68 µM) | 4 (≈ 13.4 µM) | 4 (≈ 13.4 µM) | 4 (≈ 13.4 µM) | 8 (≈ 26.7 µM) | > 8 | 4 (≈ 13.4 µM) | > 8 | > 8 | 1.5 (≈ 5.01 µM) | ≤ 1 | 1.5 (≈ 5.01 µM) | 2 (≈ 6.68 µM) | > 8 | 8 (≈ 26.7 µM) | MIC [36]: 2 µg/mL (≈ 6.68 µM); MIC [37]: 0.75 µg/mL (≈ 2.51 µM); MIC [38]: 4 µg/mL (≈ 13.4 µM); MIC [39]: 2 µg/mL (≈ 6.68 µM)
NC[C@H]1O[C@H](O[C@H]2[C@H](O)[C@@H](O[C@H]3O[C@H](CO)[C@@H](O)[C@H](N)[C@H]3O)[C@H](N)C[C@@H]2N)[C@H](N)C[C@@H]1O [TOBRAMYCIN] | 8 (≈ 17.1 µM) | 8 (≈ 17.1 µM) | > 8 | 8 (≈ 17.1 µM) | 8 (≈ 17.1 µM) | 8 (≈ 17.1 µM) | 8 (≈ 17.1 µM) | > 8 | > 8 | > 8 | > 8 | > 8 | > 8 | > 8 | > 8 | 8 (≈ 17.1 µM) | > 8 | 8 (≈ 17.1 µM) | > 8 | > 8 | MIC [36]: > 8 µg/mL; MIC [37]: 8 µg/mL (≈ 17.1 µM); MIC [38]: 8 µg/mL (≈ 17.1 µM); MIC [39]: 8 µg/mL (≈ 17.1 µM)
GENTAMICIN | > 8 | > 8 | > 8 | < 2 | < 2 | > 8 | > 8 | > 8 | > 8 | > 8 | > 8 | > 8 | > 8 | > 8 | > 8 | > 8 | > 8 | > 8 | 8 | > 8 | MIC [36]: > 8 µg/mL; MIC [37]: > 8 µg/mL; MIC [38]: < 2 µg/mL; MIC [39]: > 8 µg/mL
